test system: MCH receptors; test: MCH receptor activity class (method not given); details: not given

class | Structure (SMILES)
1 | Cc1cc(N(C)C)nc(N[C@H]2CC[C@@H](NC(=O)c3ccc(F)cc3)CC2)n1 [Example 2570, N-(cis-4-{[4-(dimethylamino)-6-methylpyrimidin-2-yl]amino}cyclohexyl)-4-fluorobenzamide]

same assay, conditions: MCH receptor activity class 1-3 (percent of control at 10^-7 M or IC50)

Structure (SMILES) | class
Cc1cccc(C(C)C)c1NC(=S)N[C@H]1CC[C@@H](Nc2cc(N(C)C)c3ccccc3n2)CC1 [compound 2303] | 3 (Class 3 The value of percent of control at 10^−7 M was more than 60% or the value of IC50 was more than 200 nM.)
COc1cc([N+](=O)[O-])ccc1NC(=S)N[C@H]1CC[C@@H](Nc2nccc(N(C)C)n2)CC1 [compound 2314] | 3 (Class 3 The value of percent of control at 10^−7 M was more than 60% or the value of IC50 was more than 200 nM.)
CCc1cccc(CC)c1NC(=O)NC[C@H]1CC[C@@H](Nc2cc(N(C)C)c3ccccc3n2)CC1 [compound 2372] | 2 (Class 2: The value of percent of control at 10^−7 M was from 40% to 60% or the value of IC′50 was from 50 nM to 200 nM.)

same assay, conditions: MCH receptor; class by percent of control at 10^-7 M or IC50

Structure (SMILES) | class
CN(C)c1cc(N[C@H]2CC[C@@H](NC(=O)C(c3ccccc3)c3ccccc3)CC2)nc2ccccc12 [compound 32, N-(cis-4-{[4-(dimethylamino)quinolin-2-yl]amino}cyclohexyl)-2,2-diphenylacetamide] | 2 (Class 2: The value of percent of control at 10^−7 M was from 40% to 60% or the value of IC′50 was from 50 nM to 200 nM.)
CN(C)c1cc(N[C@H]2CC[C@@H](NC(=O)C3=Cc4cc(Cl)ccc4OC3)CC2)nc2ccccc12 [compound 143] | 3 (Class 3 The value of percent of control at 10^−7 M was more than 60% or the value of IC50 was more than 200 nM.)
CCCCNC(=S)N[C@H]1CC[C@@H](Nc2nc3c(c(N(C)C)n2)CCCC3)CC1 [compound 1930] | 3 (Class 3 The value of percent of control at 10^−7 M was more than 60% or the value of IC50 was more than 200 nM.)
CN(C)c1nc(N[C@H]2CC[C@@H](NC(=S)NCCc3ccccc3)CC2)nc2c1CCCC2 [compound 1965] | 3 (Class 3 The value of percent of control at 10^−7 M was more than 60% or the value of IC50 was more than 200 nM.)
CN(C)c1nc(N[C@H]2CC[C@@H](NC(=S)NCC(c3ccccc3)c3ccccc3)CC2)nc2c1CCCC2 [compound 2030] | 2 (Class 2: The value of percent of control at 10^−7 M was from 40% to 60% or the value of IC′50 was from 50 nM to 200 nM.)
CN(C)c1cc(N[C@H]2CC[C@@H](NC(=O)Cc3ccccc3Br)CC2)nc2ccccc12 [compound 80] | 3 (Class 3 The value of percent of control at 10^−7 M was more than 60% or the value of IC50 was more than 200 nM.)

same assay, conditions: activity class 1-3: percent of control at 10^-7 M or IC50

Structure (SMILES) | class
CCOC(=O)c1cccc(NC(=O)N[C@H]2CC[C@@H](Nc3nc4c(c(N(C)C)n3)CCCC4)CC2)c1 [compound 1697] | 3 (Class 3 The value of percent of control at 10^−7 M was more than 60% or the value of IC50 was more than 200 nM.)
C=CCOC(=O)N[C@H]1CC[C@@H](Nc2nccc(N(C)C)n2)CC1 [compound 1630] | 3 (Class 3 The value of percent of control at 10^−7 M was more than 60% or the value of IC50 was more than 200 nM.)

same assay, conditions: activity class per percent of control at 10^-7 M or IC50

Structure (SMILES) | class
COC(C(=O)N[C@H]1CC[C@@H](Nc2nc3c(c(N(C)C)n2)CCCC3)CC1)c1ccccc1 (relative stereo) [compound 1052] | 2 (Class 2: The value of percent of control at 10^−7 M was from 40% to 60% or the value of IC′50 was from 50 nM to 200 nM.)

same assay, conditions: class 1-3 by percent of control at 10^-7 M or IC50

Structure (SMILES) | class
COc1ccc(CC(=O)N[C@H]2CC[C@@H](Nc3nc4c(c(N(C)C)n3)CCCC4)CC2)cc1OC [compound 559] | 3 (Class 3 The value of percent of control at 10^−7 M was more than 60% or the value of IC50 was more than 200 nM.)
COc1ccc(Oc2ccc([N+](=O)[O-])cc2C(=O)N[C@H]2CC[C@@H](Nc3nc4c(c(N(C)C)n3)CCCC4)CC2)cc1 [compound 544] | 1 (Class 1: The value of percent of control at 10^−7 M was less than 40% or the value of IC50 was less than 50 nM.)

same assay, conditions: class by percent of control at 10^-7 M or IC50

Structure (SMILES) | class
CCCc1c(CNC[C@H]2CC[C@@H](Nc3nc4c(c(N(C)C)n3)CCCC4)CC2)cnn1-c1ccccc1 [compound 1510] | 1 (Class 1: The value of percent of control at 10^−7 M was less than 40% or the value of IC50 was less than 50 nM.)
COc1cc(CN[C@H]2CC[C@@H](Nc3nc4c(c(N(C)C)n3)CCCC4)CC2)cc(OC)c1O [compound 1337] | 2 (Class 2: The value of percent of control at 10^−7 M was from 40% to 60% or the value of IC′50 was from 50 nM to 200 nM.)
CN(C)c1ccnc(N[C@H]2CC[C@@H](NCc3cncc(-c4ccc(F)cc4)c3)CC2)n1 [compound 1235] | 2 (Class 2: The value of percent of control at 10^−7 M was from 40% to 60% or the value of IC′50 was from 50 nM to 200 nM.)
CN(C)c1cc(N[C@H]2CC[C@@H](NC(=O)c3cc(Br)c(Br)s3)CC2)nc2ccccc12 [compound 701] | 2 (Class 2: The value of percent of control at 10^−7 M was from 40% to 60% or the value of IC′50 was from 50 nM to 200 nM.)
CN(C)c1ccnc(N[C@H]2CC[C@@H](NC(=O)c3ccc(C(F)(F)F)c(F)c3)CC2)n1 [compound 911] | 3 (Class 3 The value of percent of control at 10^−7 M was more than 60% or the value of IC50 was more than 200 nM.)
CCOc1ccccc1CNC[C@H]1CC[C@@H](Nc2nc3c(c(N(C)C)n2)CCCC3)CC1 [compound 1365] | 2 (Class 2: The value of percent of control at 10^−7 M was from 40% to 60% or the value of IC′50 was from 50 nM to 200 nM.)
CN(C)c1nc(N[C@H]2CC[C@@H](CNC(=O)Nc3ccc(F)c(F)c3)CC2)nc2c1CCCC2 [compound 2494] | 3 (Class 3 The value of percent of control at 10^−7 M was more than 60% or the value of IC50 was more than 200 nM.)
CN(C)c1nc(N[C@H]2CC[C@@H](CNC(=O)Cc3ccccc3)CC2)nc2c1CCCC2 [compound 607] | 3 (Class 3 The value of percent of control at 10^−7 M was more than 60% or the value of IC50 was more than 200 nM.)
CN(C)c1ccnc(N[C@H]2CC[C@@H](NC(=O)NC(c3ccccc3)c3ccccc3)CC2)n1 [compound 2209, N-(cis-4-{[4-(dimethylamino)pyrimidin-2-yl]amino}cyclohexyl)-N′-(diphenylmethyl)urea] | 1 (Class 1: The value of percent of control at 10^−7 M was less than 40% or the value of IC50 was less than 50 nM.)
CCOc1ccc(CNC[C@H]2CC[C@@H](Nc3nccc(N(C)C)n3)CC2)c(OCC)c1 [compound 1291] | 2 (Class 2: The value of percent of control at 10^−7 M was from 40% to 60% or the value of IC′50 was from 50 nM to 200 nM.)
Cc1cc(C(=O)NC[C@H]2CC[C@@H](Nc3nccc(N(C)C)n3)CC2)ccc1Br [compound 402] | 3 (Class 3 The value of percent of control at 10^−7 M was more than 60% or the value of IC50 was more than 200 nM.)
Cc1cccc(C(=O)NC[C@H]2CC[C@@H](Nc3cc(N(C)C)c4ccccc4n3)CC2)c1C [compound 237] | 3 (Class 3 The value of percent of control at 10^−7 M was more than 60% or the value of IC50 was more than 200 nM.)
CN(C)c1nc(N[C@H]2CC[C@@H](NC(=O)Nc3ccc(Cl)cc3[N+](=O)[O-])CC2)nc2c1CCCC2 [compound 1886] | 3 (Class 3 The value of percent of control at 10^−7 M was more than 60% or the value of IC50 was more than 200 nM.)
CN(C)c1cc(N[C@H]2CC[C@@H](NC(=O)c3cn(S(=O)(=O)c4ccccc4)c4ccccc34)CC2)nc2ccccc12 [compound 769] | 3 (Class 3 The value of percent of control at 10^−7 M was more than 60% or the value of IC50 was more than 200 nM.)
CN(C)c1ccnc(N[C@H]2CC[C@@H](NC(=O)c3ccc(OC(F)(F)F)c(Cl)c3)CC2)n1 [compound 362] | 3 (Class 3 The value of percent of control at 10^−7 M was more than 60% or the value of IC50 was more than 200 nM.)
CC(NC(=O)NC1CCC(Nc2nc3c(c(N(C)C)n2)CCCC3)CC1)c1cccc2ccccc12 (stereo not shown) [compound 1842] | 3 (Class 3 The value of percent of control at 10^−7 M was more than 60% or the value of IC50 was more than 200 nM.)
CN(C)c1nc(N[C@H]2CC[C@@H](NC(=O)Nc3cccc(Cl)c3)CC2)nc2c1CCCC2 [compound 1814] | 3 (Class 3 The value of percent of control at 10^−7 M was more than 60% or the value of IC50 was more than 200 nM.)
Cc1cccc(Cl)c1NC(=O)N[C@H]1CC[C@@H](Nc2nccc(N(C)C)n2)CC1 [compound 2194] | 3 (Class 3 The value of percent of control at 10^−7 M was more than 60% or the value of IC50 was more than 200 nM.)
CN(C)c1nc(N[C@H]2CC[C@@H](CNCc3cccc(C#N)c3)CC2)nc2c1CCCC2 [compound 1405] | 3 (Class 3 The value of percent of control at 10^−7 M was more than 60% or the value of IC50 was more than 200 nM.)
CN(C)c1cc(N[C@H]2CC[C@@H](CNCc3ccc(N(C)CCC#N)cc3)CC2)nc2ccccc12 [compound 1202] | 3 (Class 3 The value of percent of control at 10^−7 M was more than 60% or the value of IC50 was more than 200 nM.)
COc1ccc(CNC[C@H]2CC[C@@H](Nc3nc4c(c(N(C)C)n3)CCCC4)CC2)cc1C [compound 1432] | 3 (Class 3 The value of percent of control at 10^−7 M was more than 60% or the value of IC50 was more than 200 nM.)
COc1ccc2[nH]cc(CNC[C@H]3CC[C@@H](Nc4nc5c(c(N(C)C)n4)CCCC5)CC3)c2c1 [compound 1369] | 1 (Class 1: The value of percent of control at 10^−7 M was less than 40% or the value of IC50 was less than 50 nM.)

same assay, conditions: class by percent of control at 10^−7 M or IC50

Structure (SMILES) | class
Cc1cnc(N[C@H]2CC[C@@H](NCc3cc(Cl)cc(Cl)c3)CC2)nc1N(C)C [compound 3001] | 3 (Class 3 The value of percent of control at 10^−7 M was more than 60% or the value of IC50 was more than 200 nM.)
Cc1ccc(C(=O)N[C@H]2CC[C@@H](CNc3nc(C)cc(N(C)C)n3)CC2)cc1 [compound 2733] | 3 (Class 3 The value of percent of control at 10^−7 M was more than 60% or the value of IC50 was more than 200 nM.)
Cc1cc(N(C)C)nc(N[C@H]2CC[C@@H](CNC(=O)c3ccc(C)c(F)c3)CC2)n1 [compound 2755] | 2 (Class 2: The value of percent of control at 10^−7 M was from 40% to 60% or the value of IC′50 was from 50 nM to 200 nM.)
